According to patent EP0818443B1, “Mercaptoketones and mercaptoalcohols, a process for their preparation and their use as inhibitors of matrix metalloproteinases” (American Cyanamid Company, priority 1996, dated 1998):

Key:
[1] = molecular target: T1, human recombinant fibroblast collagenase (Homo sapiens, UniProt P03956); assay: Collagenase inhibition in vitro (fluorogenic peptide substrate); format: biochemical
T1 construct: human recombinant fibroblast collagenase (truncated, mw 18,828, WAR, Radnor)
T1 sequence (P03956 100-269 limits assumed): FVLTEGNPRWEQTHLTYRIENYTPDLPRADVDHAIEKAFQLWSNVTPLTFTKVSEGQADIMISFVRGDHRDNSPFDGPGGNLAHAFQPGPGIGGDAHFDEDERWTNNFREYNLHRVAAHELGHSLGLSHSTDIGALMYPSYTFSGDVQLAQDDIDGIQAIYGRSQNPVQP
Protocol: The assay is based on the cleavage of a peptide substrate ((Dnp-Pro-Cha-Gly-Cys(Me)-His-Ala-Lys(NMa)-NH2), Peptide International, Inc.) by collagenase releasing the fluorescent NMa group which is quantitated on the fluorometer. Dnp quenches the NMa fluorescence in the intact substrate. The assay is run in HCBC assay buffer (50mM HEPES, pH 7.0, 5mM Ca^+2, 0.02% Brij, 0.5% cysteine), with human recombinant fibroblast collagenase (truncated, mw 18,828, WAR, Radnor). Substrate is dissolved in methanol and stored frozen in 1mM aliquots. Collagenase is stored frozen in buffer in 25 µM aliquots. For the assay, substrate is dissolved in HCBC buffer to a final concentration of 10 µM and collagenase to a final concentration of 5nM. Compounds are dissolved in methanol, DMSO, or HCBC. The methanol and DMSO are diluted in HCBC to <1%. Compounds are added to the 96 well plate containing enzyme and the reaction is started by the addition of substrate.
The reaction is read (excitation 340 nm, emission 444nm) for 10 minutes and the increase in fluorescence over time is plotted as a linear line. The slope of the line is calculated and represents the reaction rate.
The linearity of the reaction rate is confirmed (r^2>0.85). The mean of the control rate is calculated and compared for statistical significance (p<0.05) with drug-treated rates using Dunnett's multiple comparison test. Dose-response relationships can be generated using multiple doses of drug and IC50 values with 95% CI are estimated using linear regression (IPRED, HTB) (Bickett, D. M. et al., A High Throughput Fluorogenic Substrate For Interstitial Collagenase (MMP-1) and Gelatinase (MMP-9), Anal. Biochem. 212, 58-64 (1993)).

gelatinase = gelatinase (Homo sapiens, UniProt P14780); assay: In vivo MMP inhibition (enzyme in implanted dialysis tubing); design: species or system rat (Sprague-Dawley) or mouse (CD-1)
Sequence of gelatinase (P14780 94-707): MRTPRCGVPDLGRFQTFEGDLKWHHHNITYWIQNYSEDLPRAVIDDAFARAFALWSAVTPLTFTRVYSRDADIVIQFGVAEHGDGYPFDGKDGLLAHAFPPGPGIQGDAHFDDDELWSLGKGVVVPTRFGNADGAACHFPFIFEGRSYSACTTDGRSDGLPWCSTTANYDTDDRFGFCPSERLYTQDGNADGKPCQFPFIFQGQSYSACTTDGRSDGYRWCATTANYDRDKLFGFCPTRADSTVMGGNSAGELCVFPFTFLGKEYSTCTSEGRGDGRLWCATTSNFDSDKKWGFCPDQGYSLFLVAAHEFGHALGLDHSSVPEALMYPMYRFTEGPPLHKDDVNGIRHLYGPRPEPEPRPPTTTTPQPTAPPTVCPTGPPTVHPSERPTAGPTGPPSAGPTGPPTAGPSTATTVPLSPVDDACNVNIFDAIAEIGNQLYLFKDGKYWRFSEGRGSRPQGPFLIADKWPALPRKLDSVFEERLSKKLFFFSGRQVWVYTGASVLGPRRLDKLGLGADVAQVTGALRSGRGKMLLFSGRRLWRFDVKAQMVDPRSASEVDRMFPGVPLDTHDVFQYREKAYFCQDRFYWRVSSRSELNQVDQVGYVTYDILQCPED
Protocol: A 2 cm piece of dialysis tubing (molecular weight cut-off 12-14,000, 10 mm flat width) containing matrix metalloproteinase enzyme (stromelysin, collagenase or gelatinase in 0.5 mL of buffer) is implanted either ip or sc (in the back) of a rat (Sprague-Dawley, 150-200g) or mouse (CD-1, 25-50g) under anesthesia. Drugs are administered PO, IP, SC or IV through a canula in the jugular vein. Drugs are administered in a dose volume of 0.1 to 0.25 mL/animal. Contents of the dialysis tubing is collected and enzyme activity assayed.
Enzyme reaction rates for each dialysis tube are calculated. Tubes from at least 3 different animals are used to calculate the mean± sem. Statistical significance (p<0.05) of vehicle-treated animals versus drug-treated animals is determined by analysis of variance. (Agents and Actions 21: 331, 1987)

[2] = molecular target: T2, human neutrophil gelatinase B (Homo sapiens, UniProt P14780); assay: Gelatinase inhibition in vitro (thiopeptide substrate, DTNB); format: biochemical
T2 construct: human neutrophil gelatinase B; from tissue; host or cells: human neutrophils
T2 sequence (P14780 94-707): as above
Protocol: The increase in OD405 is plotted and the slope of the line is calculated which represents the reaction rate.
The mean of the control rate is calculated and compared for statistical significance (p<0.05) with drug-treated rates using Dunnett's multiple comparison test.

[3] = molecular target: T3, human recombinant stromelysin (Homo sapiens, UniProt P08254); assay: Stromelysin inhibition in vitro (thiopeptide substrate, DTNB); format: biochemical
T3 construct: human recombinant stromelysin (truncated, Affymax); purchased Affymax
T3 sequence (P08254 100-272 limits assumed): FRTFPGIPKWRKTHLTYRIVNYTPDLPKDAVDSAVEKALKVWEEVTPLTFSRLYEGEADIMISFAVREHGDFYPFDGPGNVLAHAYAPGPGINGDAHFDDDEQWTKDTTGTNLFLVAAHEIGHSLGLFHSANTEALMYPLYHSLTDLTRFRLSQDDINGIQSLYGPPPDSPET
Protocol: The assay is based on the cleavage of the thiopeptide substrate ((Ac-Pro-Leu-Gly(2-mercapto-4-methylpentanoyl)Leu-Gly-OEt), Bachem Bioscience) by the enzyme stromelysin, releasing the substrate product which forms a colorimetric reaction with DTNB ((5,5'-dithiobis(2-nitrobenzoic acid)). The thiopeptide substrate is made up as a 20mM stock in 100% DMSO and stored frozen while the DTNB stock is dissolved in 100% DMSO and stored as a 100mM stock at room temperature. Both the substrate and DTNB are diluted to 1mM with assay buffer (50mM HEPES, pH 7.0, 5 mM CaCl2) before use. The stock of human recombinant stromelysin (truncated, Affymax) is diluted with assay buffer to a final concentration of 12.5 nM in the reaction.
The enzyme, DTNB, and substrate (10µM final concentration) with/without inhibitor (total reaction volume of 200µL) is added to a 96 well plate and then the increase in color is monitored spectrophotometrically for 5 minutes at 405 nanometers (nm) on a plate reader. The increase in OD405 is plotted and the slope of the line is calculated which represents the reaction rate.
The mean of the control rate is calculated and compared for statistical significance (p<0.05) with drug-treated rates using Dunnett's multiple comparison test. Dose-response relationships can be generated using multiple doses of drug and IC50 values with 95% Cl are estimated using linear regression (IPRED, HTB) (Weingarten and Feder, Spectrophometric Assay For Vertebrate Collagenase, Anal. Biochem 147, 437-440 (1985)).

MMP stromelysin = MMP stromelysin (Homo sapiens, UniProt P08254); settings: WO 9407481; cited from earlier work
Sequence of MMP stromelysin (P08254 100-477): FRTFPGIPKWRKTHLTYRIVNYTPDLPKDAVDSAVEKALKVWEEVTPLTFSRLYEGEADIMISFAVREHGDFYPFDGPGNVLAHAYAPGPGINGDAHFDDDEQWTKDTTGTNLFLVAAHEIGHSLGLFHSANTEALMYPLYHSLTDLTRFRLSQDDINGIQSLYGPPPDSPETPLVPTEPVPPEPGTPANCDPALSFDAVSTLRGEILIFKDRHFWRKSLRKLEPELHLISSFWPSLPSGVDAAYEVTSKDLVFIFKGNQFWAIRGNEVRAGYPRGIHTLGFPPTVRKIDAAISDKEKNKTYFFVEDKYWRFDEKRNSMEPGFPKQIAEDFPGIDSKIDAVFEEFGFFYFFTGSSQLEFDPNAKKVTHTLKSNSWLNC

CCCCCCC[C@H](C[C@H](O)CS)C(=O)N[C@H](C(=O)NC)C(C)(C)C [Example 38, (2R)-2-((2S)-2-Hydroxy-3-mercaptopropyl)nonanoic acid ((1S)-2,2-dimethyl-1-methylcarbamoylpropyl)amide]
IC50 [1]: 30 nM | in vivo % gelatinase inhibition (gelatinase; 50mpk (milligrams/kilogram)): 22.2/50mpk %

CNC(=O)[C@@H](NC(=O)[C@H](CC(C)C)C[C@H](O)CS)C(C)(C)C [Example 40, (2R,4S)-4-Hydroxy-2-isobutyl-5-mercaptopentanoic acid ((1S)-2,2-dimethyl-1-methylcarbamoylpropyl)amide]
IC50 [2]: 19 nM | IC50 [1]: 41 nM | in vivo % gelatinase inhibition (gelatinase; 50mpk (milligrams/kilogram)): 84.8/50mpk %

CNC(=O)[C@@H](NC(=O)[C@H](CC(C)C)C[C@@H](O)CSC(c1ccccc1)(c1ccccc1)c1ccccc1)C(C)(C)C [Example 35, (2R,4R)-4-Hydroxy-2-isobutyl-5-tritylsulfanylpentanoic acid ((1S)-2,2-dimethyl-1-methylcarbamoylpropyl)amide]
inhibition at 1 µM ([1]; @1µM): 72% | in vivo % gelatinase inhibition (gelatinase; 50mpk (milligrams/kilogram)): 0.44/50mpk % | inhibition at 1 µM [3]: 38%

CCCCCCC[C@H](CC(=O)CS)C(=O)N[C@H](C(=O)NC)C(C)(C)C [Example 43, (2R)-2-(3-Mercapto-2-oxopropyl)nonanoic acid ((1S)-2,2-dimethyl-1-methylcarbamoylpropyl)amide]
IC50 [1]: 30 nM | in vivo % gelatinase inhibition (gelatinase; 50mpk (milligrams/kilogram)): 0.73/50mpk* % | IC50 [3]: 28 nM

CNC(=O)[C@@H](NC(=O)[C@@H](CC(=O)CS)CC(C)C)C(C)(C)C [Example 44, (2R)-2-Isobutyl-5-mercapto-4-oxopentanoic acid ((1S)-2,2-dimethyl-1-methylcarbamoylpropyl)amide]
IC50 [1]: 38 nM | in vivo % gelatinase inhibition (gelatinase; 60mpk (milligrams/kilogram)): 4.8/60mpk % | inhibition at 1 µM [3]: 58%

CNC(=O)[C@@H](NC(=O)[C@H](CC(C)C)C[C@@H](O)CS)C(C)(C)C [Example 39, (2R,4R)-4-Hydroxy-2-isobutyl-5-mercaptopentanoic acid ((1S)-2,2-dimethyl-1-methylcarbamoylpropyl)amide]
IC50 [2]: 106 nM | IC50 [1]: 228 nM | in vivo % gelatinase inhibition (gelatinase; 50mpk (milligrams/kilogram)): 20.4/50 mpk %

CC(C)C[C@H](NC(=O)[C@@H](CS)CCc1ccccc1)C(=O)Nc1ccccc1
inhibitor of the MMP stromelysin (MMP stromelysin): moderate
